Assay results as given in patent publication US20200215158A1, “Multifunctional, Self-Assembled Aptamer-Nanomedicine Compositions and Methods for treating Cancer” (The Methodist Hospital, priority 2018, published 2020).

Legend:
[1] = test system: Karpas 299 xenograft tumor; test: Anticancer efficacy of Apt-NMed in vivo; set-up: species or system mouse; settings: post first dose treatment
Protocol: Mice NOD.Cg-Prkdc^scid Il2rg^tmlWjl/SzJ (NOD SCID), 4-6-weeks old, were used to develop xenograft tumor models by subcutaneously injecting 6×10^6 cultured CD30-expressing lymphoma cells (Karpas 299) (in 100 μL of PBS buffer) into mice on the back. Dorsal tumor nodules were allowed to grow to a volume of ˜4 mm^3 before treatment initiation. Tumor-bearing mice were randomly assigned to three groups (with six mice in each group) as follows: (i) group administered with 0.25 mg Apt-NMed carrying […] to each mouse; (ii) group administered 20 μg free DOX to each mouse, and (iii) untreated group. Drugs were injected through tail veins every other day, and the treatment was continued for four weeks. Tumor length and width were measured with calipers weekly for each mouse. Tumor volume was calculated using the following equation:
Tumor Volume=Length×Width^2×0.52
(§1) The body weight of each mouse was also measured weekly to monitor potential drug toxicity. Mice were euthanized when tumor volume exceeded 2,000 mm^3.

[2] = Body weight of tumor-bearing mice during treatment; type: in vivo, mouse
Protocol: as §1

**Q.** Which “day at which the last mouse died” value [1] does the source give for `COc1cccc2c1C(=O)c1c(O)c3c(c(O)c1C2=O)C[C@@](O)(C(=O)CO)C[C@@H]3O[C@H]1C[C@H](N)[C@H](O)[C@H](C)O1` [free DOX, doxorubicin] here?
**A.** Its value is 38 days.

**Q.** What about the body weight loss ([2]; day 35, 20 μg/mouse) of the same molecule?
**A.** Its body weight loss is 20%.

**Q.** What about the “change in mice body weight” value ([2]; during treatment) of the same molecule?
**A.** The value was “considerable decrease”.
